In patent US20070275968A1, “Substituted Biphenyl Derivative” (priority 2004, published 2007):

| Structure (SMILES) | melting point [°C] |
| --- | --- |
| Cc1cccc(-c2[nH]c(C(C)C)nc2-c2cccc(-c3ccc4c(c3)CCS4(=O)=O)c2)n1 [Example 86, 2-{4-[3-(1,1-Dioxido-2,3-dihydro-1-benzothien-5-yl)phenyl]-2-isopropyl-1H-imidazol-5-yl}-6-methylpyridine] | 128 to 131 |
| Cc1cccc(-c2nc(N)sc2-c2ccc(F)c(-c3ccc(S(N)(=O)=O)cc3)c2)n1 [Example 216, 5′-[2-Amino-4-(6-methylpyridin-2-yl)-1,3-thiazol-5-yl]-2′-fluoro-1,1′-biphenyl-4-sulfonamide] | 190 to 192 |
| Cc1cccc(-c2[nH]c(C(C)C)nc2-c2cccc(-c3ccsc3)c2)n1 [Example 14, 2-[2-Isopropyl-4-(3-thien-3-ylphenyl)-1H-imidazol-5-yl]-6-methylpyridine] | 83 to 85 |
| Cc1ccc(-c2cccc(-c3nc(C(C)C)[nH]c3-c3cccc(C)n3)c2)cc1 [Example 3, 2-[2-Isopropyl-4-(4′-methyl-1,1′-biphenyl-3-yl)-1H-imidazol-5-yl]-6-methylpyridine] | 76 to 79 |
| Cc1cccc(-c2[nH]c(C(C)C)nc2-c2cccc(-c3cc[nH]c3)c2)n1 [Example 78, 2-{2-Isopropyl-4-[3-(1H-pyrrol-3-yl)phenyl]-1H-imidazol-5-yl}-6-methylpyridine] | 112 to 114 |
| Cc1cccc(-c2n[nH]cc2-c2ccc(F)c(-c3csc(CO)n3)c2)n1 [Example 182, (4-{2-Fluoro-5-[3-(6-methylpyridin-2-yl)-1H-pyrazol-4-yl]phenyl}-1,3-thiazol-2-yl)methanol] | 89 to 92 |
| Cc1cccc(-c2n[nH]cc2-c2ccc(F)c(-c3ccc(NC(=O)NN4CCOCC4)cc3)c2)n1 [Example 192, N-{2′-Fluoro-5′-[3-(6-methylpyridin-2-yl)-1H-pyrazol-4-yl]-1,1′-biphenyl-4-yl}-N′-morpholine-4-ylurea] | 131 to 133 |
| Cc1cccc(-c2[nH]c(C(C)C)nc2-c2cccc(-c3ccc([N+](=O)[O-])cc3)c2)n1 [Example 27, 2-[2-Isopropyl-4-(4′-nitro-1,1′-biphenyl-3-yl)-1H-imidazol-5-yl]-6-methylpyridine] | 95 to 105 |
| Cc1cccc(-c2[nH]c(C(C)C)nc2-c2ccc(F)c(-c3cc[nH]n3)c2)n1 [Example 135, 2-{4-[4-Fluoro-3-(1H-pyrazol-3-yl)phenyl]-2-isopropyl-1H-imidazol-5-yl}-6-methylpyridine] | 195 to 198 |
| Cc1cccc(-c2[nH]c(C(C)C)nc2-c2ccc(F)c(-c3ccc(O)cc3)c2)n1 [Example 114, 2′-Fluoro-5′-[2-isopropyl-5-(6-methylpyridin-2-yl)-1H-imidazol-4-yl]-1,1′-biphenyl-4-ol] | 143 to 145 |
| Cc1cccc(-c2nn(C(C)C)cc2-c2ccc(F)c(-c3ccc(S(C)(=O)=O)cc3)c2)n1 [Example 200, 2-{4-[6-Fluoro-4′-(methylsulfonyl)-1,1′-biphenyl-3-yl]-1-isopropyl-1H-pyrazol-3-yl}-6-methylpyridine] | 172 to 173 |
| Cc1cccc(-c2n[nH]cc2-c2ccc(F)c(-c3cn(CCN(C)C)cn3)c2)n1 [Example 186, 2-(4-{2-Fluoro-5-[3-(6-methylpyridin-2-yl)-1H-pyrazol-4-yl]phenyl}-1H-imidazol-1-yl)-N,N-dimethylethylamine] | 130 to 131 |
| Cc1cccc(-c2[nH]c(C(C)C)nc2-c2cccc(-c3ccc[nH]3)c2)n1 [Example 23, 2-{2-Isopropyl-4-[3-(1H-pyrrol-2-yl)phenyl]-1H-imidazol-5-yl}-6-methylpyridine] | 103 to 107 |
| CCS(=O)(=O)Nc1ccc(-c2cccc(-c3nc(C(C)C)[nH]c3-c3cccc(C)n3)c2)cc1 [Example 30, N-{3′-[2-Isopropyl-5-(6-methylpyridin-2-yl)-1H-imidazol-4-yl]-1,1′-biphenyl-4-yl}ethanesulfonamide] | 123 to 135 |
| Cc1cccc(-c2[nH]c(C(C)C)nc2-c2cccc(-c3ccc(NS(C)(=O)=O)cc3F)c2)n1 [Example 73, N-{2-Fluoro-3′-[2-isopropyl-5-(6-methylpyridin-2-yl)-1H-imidazol-4-yl]-1,1′-biphenyl-4-yl}methanesulfonamide] | 179 to 184 |
| Cc1cccc(-c2[nH]c(C(C)C)nc2-c2ccc(F)c(-c3cc[nH]c3)c2)n1 [Example 123, 2-{4-[4-Fluoro-3-(1H-pyrrol-3-yl)phenyl]-2-isopropyl-1H-imidazol-5-yl}-6-methylpyridine] | 106 to 110 |

The next lines start with the values.

| melting point [°C] | Structure (SMILES) |
| --- | --- |
| 108 to 110 | CCc1cccc(-c2[nH]c(C(C)C)nc2-c2cccc(-c3ccc(S(C)(=O)=O)cc3)c2)n1 [Example 64, 2-Ethyl-6-{2-isopropyl-4-[4′-(methylsulfonyl)-1,1′-biphenyl-3-yl]-1H-imidazol-5-yl}pyridine] |
| 255 to 258 | Cc1cccc(-c2nc(C(C)C)[nH]c2-c2cccc(-c3ccc(S(N)(=O)=O)cc3)c2)n1 [Example 37, 3′-[2-Isopropyl-4-(6-methylpyridin-2-yl)-1H-imidazol-5-yl]-1,1′-biphenyl-4-sulfonamide] |
| 103 to 116 | CCS(=O)(=O)c1ccc(-c2cccc(-c3nc(C(C)C)[nH]c3-c3cccc(C)n3)c2)cc1 [Example 25, 2-{2-Isopropyl-4-[4′-(ethylsulfonyl)-1,1′-biphenyl-3-yl]-1H-imidazol-5-yl}-6-methylpyridine] |
| 177 to 180 | Cc1cccc(-c2[nH]c(C(C)C)nc2-c2ccc(F)c(-c3c[nH]c(=O)[nH]3)c2)n1 [Example 140, 4-{2-Fluoro-5-[2-isopropyl-5-(6-methylpyridin-2-yl)-1H-imidazol-4-yl]phenyl}-1,3-dihydro-2H-imidazol-2-one] |
| 91 to 93 | Cc1cccc(-c2[nH]c(C(C)C)nc2-c2cccc(-c3ccc(C(F)(F)F)cc3)c2)n1 [Example 5, 2-{2-Isopropyl-4-[4′-(trifluoromethyl)-1,1′-biphenyl-3-yl]-1H-imidazol-5-yl}-6-methylpyridine] |
| 78 to 80 | Cc1cccc(-c2n[nH]cc2-c2ccc(F)c(-c3csc(C(C)(C)O)n3)c2)n1 [Example 178, 2-(4-{2-Fluoro-5-[3-(6-methylpyridin-2-yl)-1H-pyrazol-4-yl]phenyl}-1,3-thiazol-2-yl)propan-2-ol] |
| 136 to 140 | Cc1cccc(-c2nc(C(C)C)[nH]c2-c2cccc(-c3ccc(C(=O)N4CC[S+]([O-])CC4)cc3)c2)n1 [Example 56, 4-({3′-[2-Isopropyl-4-(6-methylpyridin-2-yl)-1H-imidazol-5-yl]-1,1′-biphenyl-4-yl}carbonyl)thiomorpholine 1-oxide] |
| 123 to 135 | Cc1cccc(-c2[nH]c(C(C)C)nc2-c2cccc(-c3ccc(NC(=O)C(C)(C)O)cc3)c2)n1 [Example 34, 2-Hydroxy-N-{3′-[2-isopropyl-5-(6-methylpyridin-2-yl)-1H-imidazol-4-yl]-1,1′-biphenyl-4-yl}-2-methylpropanamide] |
| 108 to 112 | Cc1cccc(-c2[nH]c(C(C)C)nc2-c2cccc(-c3cccc(NS(C)(=O)=O)c3)c2)n1 [Example 19, N-{3′-[2-Isopropyl-5-(6-methylpyridin-2-yl)-1H-imidazol-4-yl]-1,1′-biphenyl-3-yl}methanesulfonamide] |
